The source of these data is US9776979B2, “EBI2 modulators” (Sanford-Burnham Medical Research Institute, priority 2013, dated 2017).

The first assay deals with EBI2 (Homo sapiens, UniProt P32249). As to the kind of experiment: Cell-based luminescent assay (EBI2 modulation).
Chain of EBI2 (P32249 whole entry): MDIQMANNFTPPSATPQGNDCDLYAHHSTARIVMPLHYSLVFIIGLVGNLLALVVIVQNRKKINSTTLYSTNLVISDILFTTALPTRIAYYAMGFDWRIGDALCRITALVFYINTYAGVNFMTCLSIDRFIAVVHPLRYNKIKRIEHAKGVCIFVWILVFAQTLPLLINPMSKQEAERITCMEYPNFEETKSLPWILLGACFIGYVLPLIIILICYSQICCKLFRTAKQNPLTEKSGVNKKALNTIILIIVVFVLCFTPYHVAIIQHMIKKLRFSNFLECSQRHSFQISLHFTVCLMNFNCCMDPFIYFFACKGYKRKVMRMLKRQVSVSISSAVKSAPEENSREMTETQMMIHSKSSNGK
Conditions: not given
As for the experimental part:
Cell-Based Luminescent Assay
To assess EBI2 modulation, the compounds described herein were assayed in the following cell-based luminescent assay:
1) Plated 600 cells/well in 4 uL of assay media into columns 1-48 of a 1536-well assay plate, using a liquid dispenser.
2) Centrifuged plates at 1000 rpm for 1 minute and covered with lids.
3) Incubated overnight at 37° C., 100% relative humidity, 5% CO2.
1) Centrifuged compound plates containing compounds described herein at 500 rpm for 1 minute.
2) Added compounds into assay plate col 5-48 to final concentration 4-5 uM. Added matching amount of DMSO to positive and negative control wells in columns 1-4.
3) Dispensed 2 ul/well of assay media to columns 1-2 for the positive control wells.
4) Added 2 ul/well of 400 nM 7a,25-OHC (final assay concentration=80 nM) in assay media to columns 3-48 for the negative control and test compound wells.
5) Centrifuged plates at 1000 rpm for 1 minute and re-lid plates.
6) Incubated plates at 37° C., 100% relative humidity, 5% CO2 for 60 minutes.
7) Following 60 minute incubation, delivered 2.5 uL of Detection Reagent solution to each assay plate (Columns 1-48) using a liquid handler.
8) Centrifuged plates at 2000 rpm for 2 minutes and re-lid plates.
9) Incubated plates for 60 minutes at 25 degrees in the dark.
10) Read plates using the Viewlux, Envision or other suitable plate reader using a luminescence detection.
The experimental values were normalized by the difference between values from neutral and stimulator control wells in each plate. Then normalized data was corrected to remove systematic plate patterns due to artifacts such as dispensing tip issues etc.
Regarding `O=C(/C=C/c1ccccc1)N1CCN(Cc2cccc(F)c2)CC1` [Compound C240, (2E)-1-{4-[(3-fluorophenyl)methyl]piperazinyl}-3-phenylprop-2-en-1-one], the IC50 is less than 0.1 µM.
With `O=C(c1cc2cc(Cl)ccc2[nH]1)N1CCC(Nc2cccc(F)c2)CC1` [Compound C252, 5-chloroindol-2-yl 4-[(3-fluorophenyl)amino]piperidyl ketone], the IC50 was less than 0.1 µM.

The assay is the same for the next values; noted with them: cell-based luminescence; 7a,25-OHC final assay concentration 80 nM; 60 minutes incubation; read-out: IC50.
In the case of `CCOc1ccc(/C=C/C(=O)N2CCN(C(c3ccccc3)c3ccccc3)CC2)cc1` [Compound C21, (2E)-1-[4-(diphenylmethyl)piperazinyl]-3-(4-ethoxyphenyl)prop-2-en-1-one], the IC50 was less than 0.1 µM.
For `CC(C)(C)c1ccc(CN2CCN(C(=O)/C=C/c3ccc(Br)cc3)CC2)cc1` [Compound C144, (2E)-1-(4-{[4-(tert-butyl)phenyl]methyl}piperazinyl)-3-(4-bromophenyl)prop-2-en-1-one], the IC50 was less than 0.1 µM.
The same measure, in the same setting: the same measure for `O=C(C=Cc1ccc2c(c1)OCO2)N1CCN(Cc2ccc(F)cc2)CC1` [Compound C463, 3-(2H-benzo[3,4-d]1,3-dioxolan-5-yl)-1-{4-[(4-fluorophenyl)methyl]piperazinyl}prop-2-en-1-one]: 0.1 to 0.5 µM; for `O=C(/C=C/c1ccc(Cl)c(Cl)c1)N1CCN(C(=O)c2ccc(Cl)cc2)CC1` [Compound C23, (2E)-3-(3,4-dichlorophenyl)-1-{4-[(4-chlorophenyl)carbonyl]piperazinyl}prop-2-en-1-one]: less than 0.1 µM.
Regarding “4-[(4-chlorophenyl)methyl]piperazinyl 2-(trifluoromethyl)benzimidazol-5-yl ketone [Compound C170]”, the IC50 fell in the range of 0.5 to 5 µM.
Regarding `O=C(/C=C/c1cc(F)c(F)c(F)c1)N1CCN(C(c2ccccc2)c2ccccc2)CC1` [Compound C147], the IC50 is less than 0.1 µM.
On the same count and under the same terms, the result for `CC(C)c1ccc2[nH]c(C(=O)N3CCN(C(c4ccccc4)c4ccccc4)CC3)cc2c1` [Compound C338, 4-(diphenylmethyl)piperazinyl 5-(methylethyl)indol-2-yl ketone] reads less than 0.1 µM; that for `O=C(c1cc2cc(Cl)ccc2[nH]1)N1CCN(Cc2cccc(-c3ccccc3)c2)CC1` [Compound C403, 5-chloroindol-2-yl 4-[(3-phenylphenyl)methyl]piperazinyl ketone], less than 0.1 µM; that for `O=C(C#Cc1ccc(Br)cc1)N1CCN(Cc2ccc(C(F)(F)F)cc2)CC1` [Compound C408, 3-(4-bromophenyl)-1-(4-{[4-(trifluoromethyl)phenyl]methyl}piperazinyl)prop-2-yn-1-one], 0.1 to 0.5 µM.
Same read-out and setting: the result for `O=C(c1cccc(C(F)(F)F)c1)N1CCN(C(=O)c2cc3cc(C(F)(F)F)ccc3[nH]2)CC1` [Compound C271, 5-(trifluoromethyl)indol-2-yl 4-{[3-(trifluoromethyl)phenyl]carbonyl}piperazinyl ketone] reads less than 0.1 µM.
On the same count and under the same terms, the same measure for `CCC(=O)N1CCN(C(=O)/C=C/c2ccc(Br)cc2)CC1` [Compound C145, (2E)-3-(4-bromophenyl)-1-(4-propanoylpiperazinyl)prop-2-en-1-one]: less than 0.1 µM; for “1-[4-(diphenylmethyl)piperazinyl]-3-(4-bromophenyl)prop-2-yn-1-one [Compound C50]”: less than 0.1 µM.
With `O=C(/C=C/c1ccccc1F)N1CCN(C(c2ccccc2)c2ccccc2)CC1` [Compound C113, (2E)-1-[4-(diphenylmethyl)piperazinyl]-3-(2-fluorophenyl)prop-2-en-1-one], the IC50 is less than 0.1 µM.
For the molecule `O=C(/C=C/c1ccc(Br)cc1F)N1CCN(S(=O)(=O)c2ccc(Br)cc2)CC1` [Compound C377, (2E)-3-(4-bromo-2-fluorophenyl)-1-{4-[(4-bromophenyl)sulfonyl]piperazinyl}prop-2-en-1-one], the IC50 was less than 0.1 µM.
The same measure, in the same setting: the result for `O=C(c1ccc(Cl)cc1)N1CCN(C(=O)c2cc3ccc(Cl)cc3[nH]2)CC1` [Compound C255, 6-chloroindol-2-yl 4-[(4-chlorophenyl)carbonyl]piperazinyl ketone] reads less than 0.1 µM; that for `O=C(/C=C/c1ccc(Br)cc1)N1CCN(C(=O)c2ccc(P(=O)(O)O)cc2)CC1` [Compound C3, (E)-(4-(4-(3-(4-bromophenyl)acryloyl)piperazine-1-carbonyl)phenyl)phosphonic acid], less than 0.1 µM.
The same measure, in the same setting: the result for “3-(3,5-difluorophenyl)-1-{4-[(4-fluorophenyl)carbonyl]piperazinyl}prop-2-yn-1-one [Compound C410]” reads 0.1 to 0.5 µM; that for “1-(4-{[4-fluoro-2-(trifluoromethyl)phenyl]carbonyl}piperazinyl)-3-phenylprop-2-yn-1-one [Compound C321]”, less than 0.1 µM.
Same read-out and setting: the same measure for `O=C(C#Cc1ccc(Cl)cc1)N1CCN(C(=O)c2ccc(F)cc2C(F)(F)F)CC1` [Compound C399, 3-(4-chlorophenyl)-1-(4-{[4-fluoro-2-(trifluoromethyl)phenyl]carbonyl}piperazinyl)prop-2-yn-1-one]: less than 0.1 µM.
For the molecule `O=C(c1cc2cc(F)ccc2[nH]1)N1CCN(C(c2ccccc2)c2ccccc2)CC1` [Compound C126, 4-(diphenylmethyl)piperazinyl 5-fluoroindol-2-yl ketone], the IC50 is less than 0.1 µM.
Consider “(2E)-3-(4-fluorophenyl)-1-[4-(naphthylsulfonyl)piperazinyl]prop-2-en-1-one [Compound C345]”, for which the IC50 is less than 0.1 µM.
Turning to `O=C(c1ccc(Cl)cc1)N1CCN(C(=O)c2cc3ccc(F)cc3[nH]2)CC1` [Compound C366, 4-[(4-chlorophenyl)carbonyl]piperazinyl 6-fluoroindol-2-yl ketone], the IC50 lay in the range of 0.1 to 0.5 µM.
On the same count and under the same terms, the result for `O=C(C#Cc1ccc(F)cc1)N1CCN(C(c2ccccc2)c2ccccc2)CC1` [Compound C159, 1-[4-(diphenylmethyl)piperazinyl]-3-(4-fluorophenyl)prop-2-yn-1-one] reads less than 0.1 µM.
With “(2E)-3-(4-bromophenyl)-1-{4-[({[3-fluoro-4-(trifluoromethyl)phenyl]methyl}amino)methyl]piperidyl} prop-2-en-1-one [Compound C121]”, the IC50 is less than 0.1 µM.
Take `O=C(c1cc2sccc2[nH]1)N1CCN(C(c2ccccc2)c2ccccc2)CC1` [Compound C380, 4-(diphenylmethyl)piperazinyl thiopheno[2,3-d]pyrrol-5-yl ketone]: the IC50 is less than 0.1 µM.
The same measure, in the same setting: the result for `CC(C)CC(=O)N1CCN(C(=O)/C=C/c2ccc(Br)cc2)CC1` [Compound C118, (2E)-3-(4-bromophenyl)-1-[4-(3-methylbutanoyl)piperazinyl]prop-2-en-1-one] reads less than 0.1 µM.
On the same count and under the same terms, the result for `O=C(c1cc2ccc(Br)cc2[nH]1)N1CCN(Cc2ccc(Br)cc2)CC1` [Compound C180, 6-bromoindol-2-yl 4-[(4-bromophenyl)methyl]piperazinyl ketone] reads 0.5 to 5 µM.
On the same count and under the same terms, the result for “(2E)-1-[4-(diphenylmethyl)piperazinyl]-3-(4-bromo-2-fluorophenyl)prop-2-en-1-one [Compound C24]” reads less than 0.1 µM; that for `O=C(c1ccc(Br)cc1)N1CCN(C(=O)c2cc3ccc(Br)cc3[nH]2)CC1` [Compound C264, 6-bromoindol-2-yl 4-[(4-bromophenyl)carbonyl]piperazinyl ketone], less than 0.1 µM.
“3-(4-bromophenyl)-1-{4-[(4-bromophenyl)methyl]piperazinyl}prop-2-yn-1-one [Compound C364]”: the IC50 is less than 0.1 µM.
Still for that read-out and setting: the result for `O=C(c1cc2ccccc2[nH]1)N1CCN(CCc2ccccc2)CC1` [Compound C347, indol-2-yl 4-(phenylethyl)piperazinyl ketone] reads less than 0.1 µM.
Same read-out and setting: the same measure for `CCCc1ccc(S(=O)(=O)N2CCN(C(=O)/C=C/c3ccc(F)cc3)CC2)cc1` [Compound C259, (2E)-3-(4-fluorophenyl)-1-{4-[(4-propylphenyl)sulfonyl]piperazinyl}prop-2-en-1-one]: less than 0.1 µM; for `COc1ccc(C(=O)N2CCN(C(=O)C#Cc3ccc(F)cc3)CC2)cc1` [Compound C75, 3-(4-fluorophenyl)-1-{4-[(4-methoxyphenyl)carbonyl]piperazinyl}prop-2-yn-1-one]: less than 0.1 µM; for `O=C(c1ccc(-c2nnn[nH]2)cc1)N1CCN(C(=O)c2cc3cc(Cl)ccc3[nH]2)CC1` [Compound C204, 5-chloroindol-2-yl 4-[(4-(1H-1,2,3,4-tetraazol-5-yl)phenyl)carbonyl]piperazinyl ketone]: less than 0.1 µM.
On to `O=C(c1cc2cc(Cl)ccc2[nH]1)N1CCN(C(c2ccccc2)c2ccccc2)CC1` [Compound C56, 4-(diphenylmethyl)piperazinyl 5-chloroindol-2-yl ketone], for which the IC50 is less than 0.1 µM.
Same read-out and setting: the result for `O=C(c1cc2cc(C(F)(F)F)ccc2[nH]1)N1CCN(C(c2ccccc2)c2ccccc2)CC1` [Compound C79, 4-(diphenylmethyl)piperazinyl 5-(trifluoromethyl)indol-2-yl ketone] reads less than 0.1 µM; that for `O=C(/C=C/c1ccc(F)cc1)N1CCN(S(=O)(=O)c2cccc(F)c2)CC1` [Compound C212, (2E)-3-(4-fluorophenyl)-1-{4-[(3-fluorophenyl)sulfonyl]piperazinyl}prop-2-en-1-one], less than 0.1 µM.

Broadly, the IC50 is the concentration that inhibits the measured activity by half.
